In brackets after ≈: the same amount, converted by molar mass. Several values for one entry are separate records, joined by “and”; a condition that tells them apart may be missing. Equal values may be shown once.
Legend:
E. coli Pol IIIα = target: T1, E. coli Pol IIIα (Escherichia coli, UniProt P10443); test: Real-time DNA primer extension assay; assay type: biochemical; set-up: key to rate of activity (slope of fluorescence intensity change over time): slope of fluorescence intensity change per second (made positive); settings: for rate of activity (slope of fluorescence intensity change over time): Fig. 1f source data, E. coli PolIIIα; for IC50: Fig. 1f, n = 3, read-out: PolIIIα IC50
T1 construct: made in house
T1 sequence (P10443 whole entry): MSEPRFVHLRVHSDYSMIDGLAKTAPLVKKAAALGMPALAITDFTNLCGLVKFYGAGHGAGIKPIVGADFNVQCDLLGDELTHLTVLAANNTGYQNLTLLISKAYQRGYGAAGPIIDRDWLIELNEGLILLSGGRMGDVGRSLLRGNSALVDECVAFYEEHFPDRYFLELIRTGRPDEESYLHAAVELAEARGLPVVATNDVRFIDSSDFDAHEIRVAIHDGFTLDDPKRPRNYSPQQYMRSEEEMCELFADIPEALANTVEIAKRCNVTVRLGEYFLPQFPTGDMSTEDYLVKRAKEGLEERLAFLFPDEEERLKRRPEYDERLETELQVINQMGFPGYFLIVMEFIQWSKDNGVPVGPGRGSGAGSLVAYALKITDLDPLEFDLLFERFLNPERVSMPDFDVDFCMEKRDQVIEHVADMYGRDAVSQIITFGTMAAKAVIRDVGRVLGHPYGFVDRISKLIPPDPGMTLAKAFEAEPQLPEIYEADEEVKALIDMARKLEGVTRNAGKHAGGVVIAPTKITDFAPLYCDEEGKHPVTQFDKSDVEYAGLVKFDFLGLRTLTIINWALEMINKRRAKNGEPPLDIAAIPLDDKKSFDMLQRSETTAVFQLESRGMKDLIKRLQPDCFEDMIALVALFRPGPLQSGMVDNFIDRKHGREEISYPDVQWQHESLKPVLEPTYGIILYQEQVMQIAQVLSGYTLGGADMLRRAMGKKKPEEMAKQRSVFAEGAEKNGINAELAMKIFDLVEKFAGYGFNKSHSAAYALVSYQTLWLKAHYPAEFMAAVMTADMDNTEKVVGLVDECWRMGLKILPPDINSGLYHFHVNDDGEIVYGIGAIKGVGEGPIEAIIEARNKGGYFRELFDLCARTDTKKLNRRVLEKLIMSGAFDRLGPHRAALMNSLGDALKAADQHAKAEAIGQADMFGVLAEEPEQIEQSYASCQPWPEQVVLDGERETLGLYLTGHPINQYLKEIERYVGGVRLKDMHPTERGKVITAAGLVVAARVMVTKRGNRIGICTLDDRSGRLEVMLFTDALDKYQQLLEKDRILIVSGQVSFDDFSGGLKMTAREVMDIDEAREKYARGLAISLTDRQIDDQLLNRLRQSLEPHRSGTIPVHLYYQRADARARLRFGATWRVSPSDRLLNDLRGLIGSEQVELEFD
Excerpt: DnaE from E. coli was purified as described before[33],[34].
Polymerase activity was monitored in real-time[31],[32] with a 42-nt long 5’ carboxyfluorescein-labelled DNA oligonucleotide template strand (DNASP8_42) annealed to a 30-nt primer oligonucleotide (oMU014). Polymerase activity in this assay is monitored by measuring fluorescence quenching of the labelled DNA template as a result of primer extension by PolC (for details see Supplementary Fig. 1b, c). Both primers were HPLC purified. Primer extension assays were performed in Reaction Buffer (see Gel-based polymerase and exonuclease assays) supplemented with 0.5 mg/mL BSA, 0.05% Tween20 and 25 uM of each dNTP (SRB) in 384-well Black Round Bottom plates (Corning 4514). The polymerase was diluted in the SRB and incubated for at least 5 min in the presence of inhibitor or solvent, with a final solvent concentration of 1%. The reaction was initiated by the addition of an equal volume of DNA substrate in SRB as described below. Fluorescence emission data was collected with a BMG Labtech PHERAstar FSX reader for 30 min at room temperature.
Compounds were dispensed with an Echo acoustic liquid handler (Beckman Coulter). All compounds were dissolved to 1 mM and 10 mM stocks in 100% DMSO and transferred to Echo LDV or PP source plates (Labcyte, Inc., CA), then dispensed to 384-well plates with a Labcyte Echo550 or Echo650 acoustic dispenser at volumes of 2.5 to 100 nL per well. […] A Mantis microfluidic liquid dispenser (Formulatrix) was used to dispense 5 µL polymerase and 5 µL substrate DNA (individually diluted in SRB) per well. […] The final concentration of DNA was 70 nM.
Data were analysed and standard error of the means (SEM) determined in Prism 8.4.2 and 10.2.3 (GraphPad). Raw time-course polymerase activity was plotted against time, with SEM of triplicates determined. The rate of activity (represented by signal quenching) was determined during the first 8 min (linear stage) by calculating the slope of fluorescence intensity change (converted to a positive value) over time (in seconds). The slopes were then normalized to percentage activity (%); per ‘replicate range’, 100% activity was defined as polymerase activity in the absence of inhibitor (polymerase control), and 0% activity was determined in the absence of polymerase (DNA signal; negative control). The SEM was determined between ‘replicate ranges’. The IC50 was determined using the dose-response (inhibition) nonlinear regression ‘[Inhibitor] vs. response (three parameters)’ without constraints.

C. difficile 630Δerm = test: Simplified agar dilution susceptibility of C. difficile carrying plasmid-based polC alleles; assay type: cell-based, Clostridioides difficile; settings: for MIC: Clostridioides difficile, 48 h
Description: E. coli strains were cultured aerobically at 37 °C at 180 rpm in Lysogeny Broth (LB) (1% w/v tryptone (Oxoid), 1% w/v NaCl (J.T.Baker), 0.5% w/v yeast extract). C. difficile strains were cultured in Brain Heart Infusion broth (BHI) (3.7% w/v brain heart infusion broth (Oxoid), 0.5% w/v yeast extract). Culturing of C. difficile was carried out anaerobically at 37 °C at 140 rpm in an atmosphere of 85% N2, 10% CO2, and 5% H2, using a Don Whitley VA1000 workstation. For solid media, 1.5% w/v agar (Alfa Aesar) was used. Where appropriate, media were supplemented with 50 mg/L colistin (Cayman Chemical), chloramphenicol (10 mg/L for liquid medium and 20 mg/L for agar plates), 30 mg/L kanamycin, and 15 mg/L thiamphenicol.
DNA fragments were amplified by PCR from total genomic DNA of C. difficile strain 630Δerm[40] with Q5 High-Fidelity DNA Polymerase (NEB), using oligonucleotides oNM-001/oNM-003 (amplifying the polC gene with its presumptive promoter). The oNM-001/oNM-003 PCR fragment was digested using KpnI (Roche) and BamHI (Thermo Scientific). Digesting of plasmid pAP24[65] with enzymes allowed for the isolation of plasmid backbone after agarose gel electrophoresis. The backbone was ligated to the digested PCR fragments and transformed into chemically competent DH5α E. coli cells by heat shock; transformants were selected on media containing chloramphenicol. To generate plasmids carrying variant polC genes, mutations were introduced in the plasmids harbouring wild-type polC using QuikChange Site-Directed Mutagenesis and verified by Sanger sequencing using primers listed in Supplementary Table 3. An overview of all constructed plasmids and strains can be found in Supplementary Table 4 and 5.
E. coli donor strain CA434 was transformed with the plasmid to be transferred and subsequently grown on agar plates containing chloramphenicol and kanamycin. A 1 mL aliquot of 20 h grown liquid E. coli transformant culture was pelleted by centrifugation (2 min at 10,000 x g) and cells were resuspended in 200 µL non-sporulating C. difficile 630Δerm culture. The mixture was plated onto non-selective BHI agar in 5 µL spots and after 20 h incubation, cells were harvested in 1 mL pre-reduced phosphate-buffered saline and plated in 100 µL aliquots on BHI agar supplemented with thiamphenicol and colistin. Putative transconjugants were confirmed by PCRs with primers oWKS-1070 and oWKS-1071 (targeting chromosomal gluD) and oWKS-1387, oWKS-1388, oWKS-1389, and oWKS-1390 (targeting traJ or repA on the plasmid). Note that these strains are merodiploid and carry a wild-type chromosomal copy of polC.
Susceptibilities of the parental and plasmid-carrying strains to IBZ and ACX-801 were determined using a simplified agar dilution method. In short, C. difficile strains were cultured for 20 h in liquid BHI. Bacterial cells were harvested by 10-min centrifugation at 3220 x g and resuspended in pre-reduced phosphate-buffered saline to a McFarland turbidity standard of 1.0. Suspensions were inoculated as 5 µL spots onto BHI agar containing different concentrations of inhibitor (0, 2, 4, 8, 16, 32, 64 mg/L). MICs (defined as the first dilution with severely impaired or no visible growth) were determined after 48 h and imaged on a SCAN500 plate imager (Interscience).

[1] = plasmid carrying polC-p.F1258I versus wild-type strain
[2] = plasmid carrying polC-p.F1258L versus wild-type strain
[3] = plasmid carrying polC-p.F1258S versus wild-type strain

| Structure (SMILES) | rate of activity (slope of fluorescence intensity change over time) (E. coli Pol IIIα; inhibitor 2.5 uM) | rate of activity (slope of fluorescence intensity change over time) (E. coli Pol IIIα; inhibitor 4 uM) | rate of activity (slope of fluorescence intensity change over time) (E. coli Pol IIIα; inhibitor 12.5 uM) | rate of activity (slope of fluorescence intensity change over time) (E. coli Pol IIIα; inhibitor 20 uM) | rate of activity (slope of fluorescence intensity change over time) (E. coli Pol IIIα; inhibitor 30 uM) | rate of activity (slope of fluorescence intensity change over time) (E. coli Pol IIIα; inhibitor 45 uM) | rate of activity (slope of fluorescence intensity change over time) (E. coli Pol IIIα; inhibitor 67.5 uM) | rate of activity (slope of fluorescence intensity change over time) (E. coli Pol IIIα; inhibitor 100 uM) | IC50 (E. coli Pol IIIα) [µM] | MIC (C. difficile 630Δerm) [µg/mL] | increase in the MIC (C. difficile 630Δerm; plasmid carrying polC-p.A1263T versus wild-type strain) | increase of MIC (C. difficile 630Δerm; [1]) [fold] | increase of MIC (C. difficile 630Δerm; [2]) [fold] | increase of MIC (C. difficile 630Δerm; [3]) [fold] |
| --- | --- | --- | --- | --- | --- | --- | --- | --- | --- | --- | --- | --- | --- | --- |
| O=c1[nH]c(NCc2ccc3c(c2)OC(F)(F)O3)nc2c(F)nn(CCO)c12 [ACX-801, 5-(((2,2-difluorobenzo[d][1,3]dioxol-5-yl)methyl)amino)-3-fluoro-1-(2-hydroxyethyl)-1,6-dihydro-7H-pyrazolo[4,3-d]pyrimidin-7-one] | 16.3 and 12.4 and 15.4 | 16.6 and 16.5 and 16.7 | 21.1 and 17.1 and 17.2 | 17.9 and 17.4 and 20.0 | 18.5 and 16.7 and 17.5 | 13.8 and 14.5 and 13.7 | 17.1 and 17.3 and 12.6 | 15.2 and 13.3 and 12.6 | > 100 | 2 (≈ 5.22 µM) | fourfold | 32 | ≥ 32 | 4 |
| O=c1[nH]c(NCc2ccc(Cl)c(Cl)c2)nc2ncn(CCN3CCOCC3)c12 [IBZ, N^2-(3,4-dichlorobenzyl)-7-(2-[1-morpholinyl]ethyl)guanine] | 18.2 and 16.5 and 13.6 | 15.9 and 17.9 and 15.0 | 25.0 and 21.1 and 24.7 | 29.3 and 21.9 and 23.5 | 26.6 and 21.8 and 26.2 | 27.8 and 27.6 and 30.0 | 28.5 and 30.7 and 23.6 | 31.4 and 35.8 and 26.7 | > 100 | 2 (≈ 4.72 µM) | – | 8 | 32 | 2 |
